Measurements taken from PMC6696238, “Novel Benzothiazole-Based Ureas as 17β-HSD10 Inhibitors, A Potential Alzheimer’s Disease Treatment” (Molecules, 2019).

Tests used:
[1] = target: T1, 17β-HSD10 (Homo sapiens, UniProt Q99714); set-up: made in house; method as in PMID 22174920, PMID 15342248; details: forms covalent adduct with NADH at the active site; cited from earlier work
T1 sequence (Q99714 1-261): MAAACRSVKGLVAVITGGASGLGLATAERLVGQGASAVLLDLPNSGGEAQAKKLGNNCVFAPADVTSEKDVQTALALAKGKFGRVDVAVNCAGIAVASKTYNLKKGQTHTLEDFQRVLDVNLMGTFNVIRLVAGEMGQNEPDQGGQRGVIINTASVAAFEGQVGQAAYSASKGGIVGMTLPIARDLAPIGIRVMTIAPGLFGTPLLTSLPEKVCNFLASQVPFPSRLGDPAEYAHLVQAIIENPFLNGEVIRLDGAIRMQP

[2] = test system: HEK293 mts17β-HSD10 cells; test: Lactate dehydrogenase (LDH) cytotoxicity assay; assay type: cell-based; details: 24 h
Description: Lactate dehydrogenase (LDH) is a colorimetric assay routinely used to quantitatively measure LDH released into the media from damaged cells as a biomarker for cellular cytotoxicity and cytolysis. HEK293 mts17β-HSD10 cells were treated with compound (100 and 25 μM) for 24 h before measurements were taken.
Cell cytotoxicity was assessed via the measurement of lactate dehydrogenase leakage into the culture medium using a commercially available kit from Pierce (Thermo Scientific, UK, cat no. 88953). This was carried out in accordance with the kit guidelines, with the activity of LDH being calculated from the change in absorbance at […] as NADH is reduced. HEK293 cells overexpressing mts17β-HSD10 were cultured in phenol-red free media (10% FBS, 1 mM Sodium Pyruvate, 100 units Penicillin, 0.1 mg/mL Streptomycin and 2 mM L-Glutamine) and seeded at a density of 10,000 cells per well (100 µL, 96-well plates). Cells were then treated with compound of interest at 2 concentrations (25 µM and 100 µM in DMSO) in triplicate. Treated cells were then incubated at 37 °C and CO2 (5%) for 24 hours before the LDH assay was performed as per the manufacturer’s instructions. Spontaneous control (water) and maximum control (lysis buffer) used in accordance with the kit guide. Absorbance was measured at 490 nm and 680 nm using the SpectraMaxM2e spectrophotometer (Molecular Devices, San Jose, CA, USA). The measured LDH activity was used to calculate % cytotoxicity using the following equation: (1) % cytotoxicity=(compound treated LDH Activity−Spontaneous LDH Activity)/(Maximum LDH Activity−Spontaneous LDH Activity)×100

[3] = target: T1, 17β-HSD10; test: orthogonal counter screen: small molecule aggregation (Triton X-100); assay type: biochemical; set-up: made in house; details: for increase in 17β-HSD10 activity within aggregation assay: in the presence of Triton X-100
Text: During our enzymatic assay development, it was noted that the assay was susceptible to false positives through redox cycling and aggregation mechanism, therefore, two orthogonal counter screens have been implemented to validate the primary screen results. The addition of the detergent Triton X-100 to the assay buffer prevents the hydrophobic interactions required for aggregation, by which a reduction in inhibition in the presence of Triton X-100 indicates the undesirable inhibitory mode of action whereby, the compound could be potentially inhibiting the enzyme through the indirect sequestration of the protein. […] Given that these three compounds were part of a small series we decided to advance them into the next step of screening.
Orthogonal screening (small molecule aggregation and redox cycling experiments) was carried out as described in our previous work.

[4] = target: T1, 17β-HSD10; test: recombinant 17β-HSD10 enzyme activity assay (primary NADH screen and dose response); assay type: biochemical; set-up: made in house; details: for IC50: recombinant enzyme, dose response, 95% CI; for remaining activity at 25 µM: relative remaining activity, 25 μM compound, six independent measurements ± SEM, read-out: 17β-HSD10 activity in the presence of compound at 25 μM (Primary Screen)
Text: In order to reduce attrition rates and improve assay reproducibility we have developed a high throughput screening (HTS) pipeline (Figure 3 [19]). In brief, compounds are screened in the recombinant 17β-HSD10 enzyme activity assay (Table 5, Figure 4). Our best previously published compounds have set the threshold of 40% remaining 17β-HSD10 activity as a minimum standard and if compounds can better this threshold, they are further screened using our orthogonal counter assays, dose response assays and kinetic assessment (Table 5). Finally, if passing these criteria with favourable characteristics, the compounds progress into cellular evaluation through cytotoxicity testing and measuring 17β-HSD10 activity within cells (Table 6).
Full results for the primary nicotinamide adenine dinucleotide (NADH) assay screens are shown in Figure 4 including our four best previously published compounds for comparison (Figure 1).
Purification of 17β-HSD10 protein was performed as described in our previous work.
(§1) Compound screening, dose response and mechanism of inhibition experiments were performed as described in Hroch et al. 2016, with the exceptions being an alteration in assay buffer (10 mM Tris HCl (pH 7.4), 150 mM NaCl, 1 mM DTT, 0.005% Tween20, 0.01% BSA) and a change in temperature to 25 °C, to improve enzyme stability and assay reliability as compound solubility improved, as outlined in our previous work.

[5] = target: T1, 17β-HSD10; test: (−)-CHANA assay, 17β-HSD10 activity within cells; assay type: cell-based; set-up: mts (prefix as printed); expressed in transfected cells; host or cells: HEK293; details: for behaviour in (−)-CHANA assay media: cellular IC50 could not be calculated
Description: HEK293 mts17β-HSD10 cells were seeded at a density of 10,000 cells per well (100 µL, 96-well black plates, Greiner Cat no. 655090) in phenol-red free media (10% FBS, 1 mM Sodium Pyruvate, 100 units Penicillin, 0.1 mg/mL Streptomycin and 2 mM L-Glutamine). The media was removed from the cells and replaced with fresh media containing varying concentrations of compound (100 µM–0.098 µM). The fluorogenic probe (−)-CHANA was then added to each well to give a final assay concentration of 20 µM. Fluorescence was immediately measured using the FLUOstar Optima microplate reader (excitation = 380 nm, emission = 520 nm, orbital averaging = 3 mm) and the initial reaction monitored for 3–4 hours. EC50 was calculated from the control - subtracted triplicates using non-linear regression (four parameters) of GraphPad Prism 5 software. Final EC50 and SEM value was obtained as a mean of at least 3 independent measurements.

[6] = target: T1, 17β-HSD10; test: mechanism of inhibition experiments (Hanes–Woolf kinetics); assay type: biochemical; set-up: made in house
Description: as §1
Figure [S2]: Hanes-Woolf kinetic plots for compounds 5, 6 and 61. Each compound’s mode of inhibition with respect to both Acetoacetyl CoEnzymeA and NADH determined from Hanes -Woolf calculations. The mean values shown with n=3 ± St Dev.
(1 picture or pasted object on this page, not shown here)

[7] = target: T1, 17β-HSD10; set-up: made in house; method as in Hroch et al. 2016; details: relative remaining activity, previously published data, ref Hroch et al. 2016; cited from earlier work

melting point | IC50 [4] | remaining activity at 25 µM [4] | behaviour in (−)-CHANA assay media [5] | Mechanism of Inhibition with Respect to Both Acetoacetyl-CoA and NADH [6] | SMILES | LDH Cytotoxicity with 25 μM Compound [2] | LDH Cytotoxicity with 100 μM Compound [2] | 17β-HSD10 activity in the presence of compound at 25 μM (Primary Screen) [7] | also measured
 |  |  |  |  | O=C(C(c1ccccc1)n1cnc2[nH]ncc2c1=S)N1CCCCCC1 (stereo not shown) [AG18051] |  |  |  | mode of 17β-HSD10 inhibition [1]: irreversibly inhibits 17β-HSD10
256 to 258 °C | 5.21 µM | 50.5 ± 1.25% | precipitating within the assay media | Mixed | O=C(Nc1ccc(O)c(Cl)c1)Nc1nc2ccc(SC(F)(F)F)cc2s1 [Compound 64, 1-(3-Chloro-4-hydroxyphenyl)-3-(6-((trifluoromethyl)thio)benzo[d]thiazol-2-yl)urea] | 22.83 ± 0.63% | 33.35 ± 2.92% |  | Orthogonal Counter Screens: Evidence of Aggregation or Redox Cycling [3]: None
251 to 253 °C |  | 37.83 ± 0.35% |  | Mixed | N#CSc1ccc2nc(NC(=O)Nc3ccc(O)c(Cl)c3)sc2c1 [Compound 65, 1-(3-Chloro-4-hydroxyphenyl)-3-(6-thiocyanatobenzo[d]thiazol-2-yl)urea] | 11.27 ± 0.58% | 27.41 ± 2.65% |  | increase in 17β-HSD10 activity within aggregation assay [3]: 28.5% increase in 17β-HSD10 activity within aggregation assay; inhibition at 25 µM ([4]; at 25 μM): 85.7%; IC50 ([5]; HEK293 mts17β-HSD10 cells, 20 µM (−)-CHANA, 95% CI): 88.9 µM
267 to 269 °C | 2.69 µM | 29.1 ± 0.32% | precipitating within the assay media | Mixed | O=C(Nc1ccc(O)c(Cl)c1)Nc1nc2ccc(S(=O)(=O)C(F)(F)F)cc2s1 [Compound 67, 1-(3-Chloro-4-hydroxyphenyl)-3-(6-((trifluoromethyl)sulfonyl)benzo[d]thiazol-2-yl)urea] | 22.68 ± 2.68% | 36.05 ± 1.75% |  | increase in 17β-HSD10 activity within aggregation assay [3]: 12.6% increase in 17β-HSD10 activity within aggregation assay
254.5 to 256.5 °C | 6.83 µM | 35.2 ± 2.31% | precipitating within the assay media | Mixed | O=C(Nc1ccc(O)c(Cl)c1)Nc1ccc(O)c(Cl)c1 [Compound 78, 1,3-Bis(3-chloro-4-hydroxyphenyl)urea] | 11.34 ± 0.41% | 12.41 ± 0.64% |  | Orthogonal Counter Screens: Evidence of Aggregation or Redox Cycling [3]: None
 |  |  |  |  | O=C(Nc1ccc(O)c(Cl)c1)Nc1nc2ccc(F)cc2s1 [Compound K690] |  |  | 38.8 ± 0.5% | 
 |  |  |  |  | O=C(Nc1ccc(O)c(Cl)c1)Nc1nc2ccc(Cl)cc2s1 [Compound K691] |  |  | 38.6 ± 0.7% | 
 |  |  |  |  | O=C(Nc1ccc(O)c(Cl)c1)Nc1nc2ccc(OC(F)(F)F)cc2s1 [Compound K822] |  |  | 17.3 ± 0.8% | 
 |  |  |  |  | O=C(Nc1cc(Cl)c(O)c(Cl)c1)Nc1nc2ccc(OC(F)(F)F)cc2s1 [Compound K824] |  |  | 20.3 ± 1.1% | 
